Assays:
Assay type in all cases: cell-based
[1] = test system: Peptostreptococcus asaccharolyticus (KTCC 3321); experiment: Growth of Peptostreptococcus asaccharolyticus in Wilkins Chalgren Anaerobe Broth; settings: citric acid 0.8 g, trisodium phosphate 1.85 g, pH 6.0
Text: (§1) The following control group is a broth not injected with the bacteria.

[2] = test system: Streptococcus mitis (KCTC 3556); experiment: Growth of Streptococcus mitis in BHI broth; settings: citric acid 0.4 g, trisodium phosphate 0.64 g, pH 6.0
Text: as §1

[3] = test system: Streptococcus mutans (KCTC 3065); experiment: Growth of Streptococcus mutans in BHI broth; settings: citric acid 0.4 g, trisodium phosphate 0.64 g, pH 6.0
Text: as §1

[4] = test system: S. salivarius (KCTC 3960); experiment: Growth of S. salivarius in BHI broth; settings: citric acid 0.4 g, trisodium phosphate 0.64 g, pH 6.0
Text: as §1

[5] = test system: Streptococcus sanguinis; experiment: Growth of Streptococcus sanguinis in BHI broth; settings: citric acid 0.4 g, trisodium phosphate 0.64 g, pH 6.0
Text: as §1

[6] = test system: Pityrosporum ovale (Malassezia furfur); experiment: Growth of Pityrosporum ovale in Leeming & Notman medium; settings: 32° C. for 3 days; FIG. 4; trisodium phosphate at pH 8.0
Procedure: Each of citric acid (pH 4.0), trisodium phosphate (TSP, pH 8.4) and citric acid+trisodium phosphate (pH 5.0) was added to Leeming & Notman medium of 1 L containing glucose 10 g, peptone 10 g, bile salts 8 g, yeast extract 2 g, glycerol monostearate 0.5 g, glycerol 10 ml and Tween 80 (1.5%) 15 ml, and 0.1 ml of Pityrosporum ovale (Malassezia furfur), which is a kind of fungi known for causing atopy, was injected to each group.

Compound: HCl [Broth D]
- Absorbance (OD) ([1]; 4 hrs): 0.005 OD
- Absorbance (OD) ([1]; 8 hrs): 0.010 OD
- Absorbance (OD) ([1]; 12 hrs): 0.002 OD
- Absorbance (OD) ([1]; 16 hrs): 0.008 OD
- Growth observed (in words) ([1]; 20 hrs): No change
- Growth observed (in words) ([1]; 24 hrs): No change
- Growth observed (in words) ([1]; 56 hrs): Full growth
- Absorbance (OD) ([2]; 4 hrs): 0.054 OD
- Absorbance (OD) ([2]; 6 hrs): 0.104 OD
- Absorbance (OD) ([2]; 8 hrs): 0.205 OD
- Absorbance (OD) ([2]; 10 hrs): 0.244 OD
- Absorbance (OD) ([2]; 12 hrs): 0.218 OD
- Absorbance (OD) ([2]; 14 hrs): 0.127 OD
- Absorbance (OD) ([2]; 16 hrs): 0.089 OD
- Absorbance (OD) ([2]; 18 hrs): 0.092 OD
- Absorbance (OD) ([3]; 4 hrs): 0.032 OD
- Absorbance (OD) ([3]; 6 hrs): 0.092 OD
- Absorbance (OD) ([3]; 8 hrs): 0.141 OD
- Absorbance (OD) ([3]; 10 hrs): 0.200 OD
- Absorbance (OD) ([3]; 12 hrs): 0.244 OD
- Absorbance (OD) ([3]; 14 hrs): 0.212 OD
- Absorbance (OD) ([3]; 16 hrs): 0.235 OD
- Absorbance (OD) ([3]; 18 hrs): 0.210 OD
- Absorbance (OD) ([4]; 4 hrs): 0.011 OD
- Absorbance (OD) ([4]; 6 hrs): 0.068 OD
- Absorbance (OD) ([4]; 8 hrs): 0.167 OD
- Absorbance (OD) ([4]; 10 hrs): 0.192 OD
- Absorbance (OD) ([4]; 12 hrs): 0.224 OD
- Absorbance (OD) ([4]; 14 hrs): 0.234 OD
- Absorbance (OD) ([4]; 16 hrs): 0.319 OD
- Absorbance (OD) ([4]; 18 hrs): 0.224 OD
- Absorbance (OD) ([5]; 4 hrs): 0.018 OD
- Absorbance (OD) ([5]; 6 hrs): 0.039 OD
- Absorbance (OD) ([5]; 8 hrs): 0.118 OD
- Absorbance (OD) ([5]; 10 hrs): 0.127 OD
- Absorbance (OD) ([5]; 12 hrs): 0.283 OD
- Absorbance (OD) ([5]; 14 hrs): 0.303 OD
- Absorbance (OD) ([5]; 16 hrs): 0.203 OD
- Absorbance (OD) ([5]; 18 hrs): 0.199 OD

Compound: O=P([O-])([O-])[O-].[Na+].[Na+].[Na+] [trisodium phosphate]
- growth of P. ovale [6]: significantly suppressed

Source: patent US20140140946A1, “SKIN PREPARATION COMPOSITION FOR EXTERNAL USE WITH EXCELLENT ANTIBACTERIAL AND ANTIFUNGAL EFFECTS” (priority 2010, published 2014)
